The test system of assay [1] is Corynebacterium ammoniagenes. Description: Antimicrobial activity against Brevibacterium ammoniagenes ATCC 6872 after 48 hrs by twofold serial broth dilution method. The note with it: ATCC 6872, 48 h. It is filed as functional. (Broth dilution looks for growth in wells or tubes with falling amounts of substance.)
The next assay has as its system Streptococcus mutans. Description: Antimicrobial activity against Streptococcus mutans ATCC 25175 after 48 hrs by twofold serial broth dilution method. It is filed as functional. The note with it: ATCC 25175, 48 h.

Among the data in ChEMBL document CHEMBL1158946, “Sesquiterpenoids from Brachylaena hutchinsii” (1991) are MIC values, retold here.

For orientation: MIC means the lowest concentration found to suppress growth. A lower MIC goes with inhibition by little substance.

Molecules are shown by their SMILES. In brackets after ≈: the same amount, converted by molar mass.

With `CC(C)[C@H]1C(=O)C[C@@]2(C)[C@@H]3C(CO)=CC[C@H]2[C@H]13`, the MIC (in assay [1]; against Streptococcus mutans) was above 800 µg/mL throughout.
For `CC(C)[C@@H]1C(=O)CC2(C)C3C(C=O)=CC[C@@H]2[C@H]31`, the minimal inhibitory concentration (MIC) (in assay [1]; against Streptococcus mutans) was 800 µg/mL (≈ 3.44 mM) throughout.
For `CC(C)[C@@H]1C(=O)CC2(C)C3C(CO)=CC[C@@H]2[C@H]31`, the minimal inhibitory concentration (MIC) (in assay [1]; in the assay with Streptococcus mutans) was above 800 µg/mL throughout.
Regarding `CC(C)[C@H]1C(=O)CC2(C)C3C(C=O)=CC[C@@H]2[C@H]31`, the MIC (in assay [1]; against Streptococcus mutans) was 800 µg/mL (≈ 3.44 mM) in each case.
Take `CC(C)[C@@H]1CCC2(C)C3C(CO)=CC[C@@H]2[C@H]31` [YLANGENOL]: the MIC (in assay [1]; against Streptococcus mutans) was 25 µg/mL (≈ 0.113 mM) each time.
